Laboratory results taken from US20110131683A1, “Polypeptide Inducing Dwarfism of Plants, Polynucleotide Coding the Polypeptide, and Those Use” (GENOMINE, INC., priority 2007, published 2011).

Columns and labels:
Type in all cases: in vivo, Arabidopsis thaliana
[1] = test system: AtGA20ox1, AtGA20ox2 and AtGA3ox1 expression; assay: RT-PCR expression of gibberellin biosynthesis-related genes in SEN::AtGA2ox4 mutant; details: FIG. 9
Method: Genes associated with GA 2-oxidase activity, flowering and a feedback mechanism of the gibberellin metabolism in the SEN::AtGA2ox4 mutant with a dwarfism phenotype were analyzed for expression patterns. In this regard, total RNA was isolated from flowers, roots, stems, leaves and siliques of the wild-type Arabidopsis thaliana and the SEN::AtGA2ox4 mutant, both grown for 30 days after germination, with the aid of RNasey Plant Mini Kit (QIAGEN, Germany). cDNA was synthesized from 1 μg of each RNA using Superscript III Reverse Transcriptase (INVITROGEN, USA) under the conditions of 65° C., 5 min; 50° C., 60 min; and 70° C., 15 min. Then, PCR was performed using the synthesized cDNAs as templates in the presence of the primers, specific for GA 2-oxidase and flowering genes, listed in Table 1, below. The PCR was initiated by denaturing the template DNA at 94° C. for 2 min and performed with 30 cycles of 94° C., 1 min; 55° C., 1.5 min; and 72° C., 1 min, followed by extension at 72° C. for 15 min. […]
An examination was made about whether the gene of the present invention is involved in the feedback mechanism of the gibberellin metabolism and thus in gibberellin catabolism. For this, AtGA20ox1 and AtGA20ox2, both coding for GA20-oxidase, and AtGA3ox1 coding for GA3-oxidase were analyzed for expression levels in the SEN::AtGA2ox4 mutant. […]

[2] = test system: SEN::AtGA2ox4-9 and SEN::AtGA2ox4-10 dwarfism lines; assay: Phenotype recovery of SEN::AtGA2ox4 mutant by treatment with GA3
Method: In order to examine whether the AtGA2ox4 gene is actually involved in gibberellin catabolism, the SEN::AtGA2ox4-9 and the SEN::AtGA2ox4-10 line, both showing dwarfism phenotypes, were grown for 30 days while 10^−4 M GA3 (Sigma, USA) was applied twice at intervals of one week starting from 12 days after germination. Treatment with the active gibberellin GA3 may recover the phenotype of the dwarfism-induced mutant in which gibberellin insufficiency was caused by the overexpression of the AtGA2ox4 gene, to that of the wild-type. Comparisons were made between the mutants treated with or without GA3 (FIGS. 10, 11 and 12). […] This was true of GA3-treated mutants. These facts allow an inference that the gene of the present invention plays an important role in dwarfism induction in plants, but is not involved in the control of flowering time.

[3] = test system: proteins up-regulated by AtGA2ox4 overexpression; assay: Two-dimensional electrophoresis of proteins of SEN::AtGA2ox4 mutant; details: SEN::AtGA2ox4 mutant grown 30 days, 2-D electrophoresis, Table 2
Method: Proteins were isolated from the wild-type Arabidopsis thaliana (FIG. 13), the SEN::AtGA2ox4 mutant (FIG. 14), and the GA3-treated SEN::AtGA2ox4 mutant (FIG. 15), all grown for 30 days after germination, and analyzed for expression pattern by two-dimensional electrophoresis. Protein isolation for each plant was conducted as follows. Each plant was mashed in 10 volumes of a reagent comprising 7M urea, 2M thiourea, 4% (w/v) 3-[(3-cholamidopropy)dimethyammonio]-1-propanesulfonate (CHAPS), 1% (w/v) dithiothreitol (DTT), 2% (v/v) pharmalyte and 1 mM benzamidine, followed by heating at 100° C. for 10 min. After centrifugation at 15,000 rpm for 1 hour, the supernatant was used as a sample for two-dimensional electrophoresis. Protein quantities were determined using the Bradford method (Bradford et al., 1976). For primary isoelectric focusing (IEF), IPG strips were soaked at room temperature for 12-16 hrs in a reswelling solution comprising 7M urea, 2M thiourea, 2% 3-[(3-cholamidopropy)dimethylammonio]-1-propanesulfonate (CHAPS), 1% dithiothreitol (DTT) and 1% pharmalyte. Each protein sample was used in the amount of 200 μg per strip. […] The protein spots were quantified to examine a change in expression level by the analysis of the scanned images using the PDQuest software (version 7.0, BioRad). The quantity of each spot was normalized according to the total intensity of valid spots. […]

Structure (SMILES): C=C1C[C@]23C[C@@]1(O)CC[C@H]2[C@@]12C=C[C@H](O)[C@@](C)(C(=O)O1)[C@H]2[C@@H]3C(=O)O [GA3]
- expression levels of AtGA20ox1, AtGA20ox2 and AtGA3ox1 after GA3 treatment [1]: return the expression levels to those of the wild-type
- phenotype of dwarfism-induced mutant lines after GA3 treatment ([2]; 10^-4 M GA3 applied twice at intervals of one week starting 12 days after germination, grown 30 days, SEN::AtGA2ox4-9 and -10 lines): recovered almost perfectly to the wild-type phenotype
- flowering time of GA3-treated mutants versus wild-type ([2]; GA3-treated SEN::AtGA2ox4 mutants): not different in flowering time from the wild-type
- proteins up-regulated by AtGA2ox4 overexpression, after GA3 treatment [3]: recovered to the phenotype of the wild-type
